From PubChem BioAssay AID328 (DTP/NCI, 2004)
Values joined by “and” are separate entries in the source; they are usually repeats but may differ in a detail not shown here. Equal entries are not always repeated. Toxic doses and inconclusive results are not listed. How the source made its calls: active means survival T/C of 150% or more; inactive means T/C below 125% in these data.

Test system: BDF1 mice, P388 leukemia ip, median survival T/C
Experiment: NCI In Vivo Anticancer Drug Screen. Data for tumor model P388 Leukemia (intraperitoneal) in B6D2F1 (BDF1) mice
Settings: endpoint: median survival time, higher = longer survival
Method in brief: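 Each value expresses how treatment altered survival: treated-mouse outcome over vehicle-mouse outcome, both groups bearing the transplanted tumour.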

[1] = dose: 12.5 mg/kg/injection, schedule: Q04DX003 (ip), vehicle: water
[2] = dose: 25.0 mg/kg/injection, schedule: Q04DX003 (ip), vehicle: water
[3] = dose: 50.0 mg/kg/injection, schedule: Q01DX009 (ip), vehicle: water
[4] = dose: 50.0 mg/kg/injection, schedule: Q04DX003 (ip), vehicle: water
[5] = dose: 100.0 mg/kg/injection, schedule: Q01DX009 (ip), vehicle: water
[6] = dose: 50.0 mg/kg/injection, schedule: Q01DX009 (ip), vehicle: saline with Tween-80
[7] = dose: 100.0 mg/kg/injection, schedule: Q01DX009 (ip), vehicle: saline with Tween-80
[8] = dose: 200.0 mg/kg/injection, schedule: Q01DX009 (ip), vehicle: saline with Tween-80
[9] = dose: 12.5 mg/kg/injection, schedule: Q01DX009 (ip), vehicle: Klucel (hydroxypropylcellulose) (HPC)

Measured: T/C

C[n+]1c(-c2cccc3ccccc23)c2cc([N+](=O)[O-])ccc2c2ccccc21
inactive: dose: 1.0 mg/kg/injection, schedule: Q04DX003 (ip), vehicle: water 113 % of control | dose: 2.0 mg/kg/injection, schedule: Q04DX003 (ip), vehicle: water 104 % of control | dose: 4.0 mg/kg/injection, schedule: Q01DX009 (ip), vehicle: water 118 % of control | dose: 4.0 mg/kg/injection, schedule: Q04DX003 (ip), vehicle: water 115 % of control | dose: 8.0 mg/kg/injection, schedule: Q04DX003 (ip), vehicle: water 97 % of control and 108 % of control | dose: 16.0 mg/kg/injection, schedule: Q04DX003 (ip), vehicle: water 109 % of control | dose: 32.0 mg/kg/injection, schedule: Q01DX009 (ip), vehicle: water 109 % of control | dose: 32.0 mg/kg/injection, schedule: Q04DX003 (ip), vehicle: water 106 % of control

CC(C)(C)CC(C)(C)c1ccc(OCCOc2ccccc2NC(=O)CC(=O)c2cccc([N+](=O)[O-])c2)cc1
inactive: dose: 100.0 mg/kg/injection, schedule: Q01DX001 (ip), vehicle: Klucel (hydroxypropylcellulose) (HPC) 95 % of control | dose: 200.0 mg/kg/injection, schedule: Q01DX001 (ip), vehicle: Klucel (hydroxypropylcellulose) (HPC) 95 % of control | dose: 400.0 mg/kg/injection, schedule: Q01DX001 (ip), vehicle: Klucel (hydroxypropylcellulose) (HPC) 95 % of control

CCS(=O)c1ncc2cnccn12 (configuration not stated)
inactive: [1] 109 % of control | [2] 92 % of control | [3] 102 % of control | [4] 100 % of control and 101 % of control | [5] 94 % of control

C#CC(C)OCC(C)OC (configuration not stated)
inactive: dose: 12.5 mg/kg/injection, schedule: Q04DX003 (ip), vehicle: saline with Tween-80 118 % of control | dose: 50.0 mg/kg/injection, schedule: Q04DX003 (ip), vehicle: saline with Tween-80 118 % of control

CC(=O)OC(C)(C)c1ccccc1[S+]1OC(C)(C)c2ccccc21 (configuration not stated)
inactive: dose: 100.0 mg/kg/injection, schedule: Q01DX001 (ip), vehicle: other 100 % of control

CC1NCCNCCNCCNC(C)c2cccc1n2 (configuration not stated)
inactive: dose: 6.25 mg/kg/injection, schedule: Q01DX009 (ip), vehicle: saline 118 % of control | dose: 12.5 mg/kg/injection, schedule: Q01DX009 (ip), vehicle: saline 106 % of control | dose: 25.0 mg/kg/injection, schedule: Q01DX009 (ip), vehicle: saline 118 % of control

CC1CN1c1nc(N2CC2C)nc(N2CC2C)n1 (configuration not stated)
inactive: dose: 3.0 mg/kg/injection, schedule: Q01DX009 (ip), vehicle: saline 104 % of control | dose: 3.0 mg/kg/injection, schedule: Q04DX003 (ip), vehicle: saline 109 % of control | dose: 6.0 mg/kg/injection, schedule: Q01DX009 (ip), vehicle: saline 112 % of control | dose: 6.0 mg/kg/injection, schedule: Q04DX003 (ip), vehicle: saline 109 % of control | dose: 12.0 mg/kg/injection, schedule: Q04DX003 (ip), vehicle: saline 114 % of control | dose: 12.5 mg/kg/injection, schedule: Q04DX003 (ip), vehicle: saline 120 % of control

CCOC(=O)CNCc1cccc(Br)c1
inactive: dose: 50.0 mg/kg/injection, schedule: Q01DX005 (ip), vehicle: saline 104 % of control | dose: 100.0 mg/kg/injection, schedule: Q01DX005 (ip), vehicle: saline 106 % of control | dose: 200.0 mg/kg/injection, schedule: Q01DX005 (ip), vehicle: saline 98 % of control | dose: 400.0 mg/kg/injection, schedule: Q01DX005 (ip), vehicle: saline 104 % of control

NC(=O)CC1=NCCc2ccccc21
inactive: dose: 50.0 mg/kg/injection, schedule: Q01DX009 (ip), vehicle: saline 95 % of control | dose: 50.0 mg/kg/injection, schedule: Q04DX003 (ip), vehicle: saline 100 % of control | dose: 100.0 mg/kg/injection, schedule: Q01DX009 (ip), vehicle: saline 91 % of control | dose: 100.0 mg/kg/injection, schedule: Q04DX003 (ip), vehicle: saline 100 % of control | dose: 200.0 mg/kg/injection, schedule: Q01DX009 (ip), vehicle: saline 91 % of control | dose: 200.0 mg/kg/injection, schedule: Q04DX003 (ip), vehicle: saline 113 % of control

CC1(C)OCC(C2OC3OC(C)(C)OC3C2O)O1 (configuration not stated)
inactive: dose: 20.0 mg/kg/injection, schedule: Q01DX009 (ip), vehicle: saline 107 % of control | dose: 40.0 mg/kg/injection, schedule: Q01DX009 (ip), vehicle: saline 109 % of control | dose: 80.0 mg/kg/injection, schedule: Q01DX009 (ip), vehicle: saline 108 % of control

CCN(CC)Cc1c(C)[nH]c2c(OC)cccc2c1=O
inactive: dose: 6.25 mg/kg/injection, schedule: Q01DX009 (ip), vehicle: water 97 % of control | dose: 6.25 mg/kg/injection, schedule: Q04DX003 (ip), vehicle: water 98 % of control | dose: 12.5 mg/kg/injection, schedule: Q01DX009 (ip), vehicle: water 99 % of control | [1] 91 % of control | dose: 25.0 mg/kg/injection, schedule: Q01DX009 (ip), vehicle: water 106 % of control | [2] 105 % of control | [3] 97 % of control | [4] 100 % of control | [5] 108 % of control | dose: 100.0 mg/kg/injection, schedule: Q04DX003 (ip), vehicle: water 105 % of control

CCCC(Cc1ccccc1)(C(=O)OCC)C(=O)OCC
inactive: dose: 100.0 mg/kg/injection, schedule: Q04DX003 (ip), vehicle: saline with Tween-80 99 % of control | dose: 200.0 mg/kg/injection, schedule: Q04DX003 (ip), vehicle: saline with Tween-80 99 % of control | dose: 400.0 mg/kg/injection, schedule: Q04DX003 (ip), vehicle: saline with Tween-80 91 % of control

COc1ccc2c(c1)CC[C@@H]1[C@@H]2CC[C@@]2(C)[C@H]1CC[C@@]2(O)C(F)=C(F)F
inactive: [6] 118 % of control | [7] 113 % of control | [8] 104 % of control

CC(C)(O)C(NC(N)=O)c1ccccc1 (configuration not stated)
inactive: [6] 104 % of control | [7] 101 % of control | [8] 100 % of control

COc1ccc(C(=O)OCCN(CCN(CCOC(=O)c2ccc(OC)cc2)C(=O)c2ccc(OC)cc2)C(=O)c2ccc(OC)cc2)cc1
inactive: dose: 6.25 mg/kg/injection, schedule: Q01DX009 (ip), vehicle: Klucel (hydroxypropylcellulose) (HPC) 95 % of control | [9] 95 % of control | dose: 25.0 mg/kg/injection, schedule: Q04DX003 (ip), vehicle: Klucel (hydroxypropylcellulose) (HPC) 91 % of control | dose: 50.0 mg/kg/injection, schedule: Q04DX003 (ip), vehicle: Klucel (hydroxypropylcellulose) (HPC) 90 % of control | dose: 100.0 mg/kg/injection, schedule: Q04DX003 (ip), vehicle: Klucel (hydroxypropylcellulose) (HPC) 96 % of control | dose: 200.0 mg/kg/injection, schedule: Q04DX003 (ip), vehicle: Klucel (hydroxypropylcellulose) (HPC) 91 % of control

CCNSc1ccccc1
inactive: [9] 109 % of control | dose: 25.0 mg/kg/injection, schedule: Q01DX009 (ip), vehicle: Klucel (hydroxypropylcellulose) (HPC) 110 % of control | dose: 50.0 mg/kg/injection, schedule: Q01DX009 (ip), vehicle: Klucel (hydroxypropylcellulose) (HPC) 106 % of control

CCOC(=O)c1c/c(=C(\C)O)c(=O)n2c1nc1ccccc12
inactive: dose: 100.0 mg/kg/injection, schedule: Q04DX002 (ip), vehicle: saline with Tween-80 100 % of control | dose: 200.0 mg/kg/injection, schedule: Q04DX002 (ip), vehicle: saline with Tween-80 87 % of control | dose: 400.0 mg/kg/injection, schedule: Q04DX002 (ip), vehicle: saline with Tween-80 103 % of control

O=C1C=CC(=O)c2c(O)c(CO)c(CO)c(O)c21
inactive: dose: 0.19 mg/kg/injection, schedule: Q01DX009 (ip), vehicle: water 100 % of control | dose: 0.39 mg/kg/injection, schedule: Q01DX009 (ip), vehicle: water 108 % of control | dose: 0.78 mg/kg/injection, schedule: Q01DX009 (ip), vehicle: water 115 % of control | dose: 1.56 mg/kg/injection, schedule: Q01DX009 (ip), vehicle: water 102 % of control | dose: 3.12 mg/kg/injection, schedule: Q01DX009 (ip), vehicle: water 108 % of control
